Like-named read-outs stand apart in the source and are kept apart here.
Columns and labels:
chemically induced AP = system: chemically induced AP; set-up: method as in PMID 31050811; conditions: three different murine models; cited from earlier work
HEK cells [1] = assay: HEK cell viability after 72 h at 50 μM with or without uridine (involvement of DHODH); conditions: 50 μM, 72 h; for reversal of cytotoxicity by uridine: uridine 100 μM
SOCE [2] = assay: SOCE inhibition in HEK cells by fluorescence microscopy (calcium imaging); type: cell-based, human; conditions: for inhibition at 10 µM / inhibition at 3 µM: Homo sapiens; for inhibition at 10 µM: negative value = increased Ca2+ entry vs control; for AUC, peak amplitude, and slope of the Ca2+-rise: selected compounds, Figure S1
Protocol: With these two compounds in hand, two click reactions were performed and compounds 9 and 18 (Table 1), displaying the same substructures as the reference compound Synta66, were obtained with a yield of 31 and 60%, respectively. 9 and 18 were tested for activity on SOCE in HEK cells, a human embryonic kidney (HEK) cell line, by fluorescence microscopy, as described elsewhere.[16] After 600 s, Ca^2+ was added and intracellular levels were measured.
Screening, dose–response experiments, and calcium imaging experiments were performed in HEK cells (ATCC, Rock, ville, MD, USA), as already reported elsewhere.[16]

ICRAC = system: ICRAC; set-up: method as in PMID 19648266; conditions: cited from earlier work
HEK cells [3] = system: HEK cells
SOCE [4] = system: SOCE; set-up: method as in PMID 29038464; conditions: HEK cells; cited from earlier work
[5] = HEK293, supplementary CSV, HEK cells, read-out: % SOCE Inhibition (3 µM)

Structure (SMILES): Cc1cccc(F)c1C(=O)Nc1cnc(-c2cc3c(cc2Cl)OC(F)(F)O3)cn1 [CM4620, reference compound]
- protection in murine models of chemically induced AP (chemically induced AP): protective
- cell viability / cytotoxicity at 50 μM, 72 h (HEK cells [1]): cytotoxic
- reversal of cytotoxicity by uridine (HEK cells [1]): not reverted by uridine

Structure (SMILES): COc1ccc(OC)c(-c2ccc(-n3cc(-c4ccncc4F)nn3)cc2)c1 [Compound 9, 4-(1-(2′,5′-Dimethoxy-[1,1′-biphenyl]-4-yl)-1H-1,2,3-triazol-4-yl)-3-fluoropyridine]
- effect on SOCE, in words (SOCE [2]; HEK cells): not able to reliably inhibit SOCE

Structure (SMILES): COc1ccc(OC)c(-c2ccc(-n3cc(-c4ccncc4)nn3)cc2)c1 [Compound 10, 4-(1-(2′,5′-Dimethoxy-[1,1′-biphenyl]-4-yl)-1H-1,2,3-triazol-4-yl)pyridine]
- effect on SOCE, in words (SOCE [2]; HEK cells): not able to reliably inhibit SOCE
- inhibition at 10 µM (SOCE [2]; HEK293, HEK cells, 10 μM): -12.8 ± 14.4%
- inhibition at 3 µM (SOCE [2]; [5]): -12.8 ± 14.4%

Structure (SMILES): COc1ccc(OC)c(-c2ccc(-n3cc(-c4cccnc4)nn3)cc2)c1 [Compound 11, 3-(1-(2′,5′-Dimethoxy-[1,1′-biphenyl]-4-yl)-1H-1,2,3-triazol-4-yl)pyridine]
- effect on SOCE, in words (SOCE [2]; HEK cells): not able to reliably inhibit SOCE
- inhibition at 10 µM (SOCE [2]; HEK293, HEK cells, 10 μM): -14 ± 31.9%
- inhibition at 3 µM (SOCE [2]; [5]): -14 ± 31.9%

Structure (SMILES): COc1ccc(OC)c(-c2ccc(-n3cc(-c4ccccn4)nn3)cc2)c1 [Compound 12, 2-(1-(2′,5′-Dimethoxy-[1,1′-biphenyl]-4-yl)-1H-1,2,3-triazol-4-yl)pyridine]
- inhibition at 10 µM (SOCE [2]; HEK293, HEK cells, 10 μM): 0%
- inhibition at 3 µM (SOCE [2]; [5]): 0%

Structure (SMILES): COc1ccc(OC)c(-c2ccc(-n3cc(-c4ccnc(C(=O)O)c4)nn3)cc2)c1 [Compound 13, 4-(1-(2′,5′-Dimethoxy-[1,1′-biphenyl]-4-yl)-1H-1,2,3-triazol-4-yl)picolinic Acid]
- inhibition at 10 µM (SOCE [2]; HEK293, HEK cells, 10 μM): > 70%

Structure (SMILES): COc1ccc(OC)c(-c2ccc(-n3cc(-c4cccc(C(=O)O)c4)nn3)cc2)c1 [Compound 14, 3-(1-(2′,5′-Dimethoxy-[1,1′-biphenyl]-4-yl)-1H-1,2,3-triazol-4-yl)benzoic Acid]
- inhibition at 10 µM (SOCE [2]; HEK293, HEK cells, 10 μM): > 70%

Structure (SMILES): COc1ccc(OC)c(-c2ccc(-c3cn(-c4ccncc4)nn3)cc2)c1 [Compound 19, 4-(4-(2′,5′-Dimethoxy-[1,1′-biphenyl]-4-yl)-1H-1,2,3-triazol-1-yl)pyridine]
- effect on SOCE, in words (SOCE [2]; HEK cells): not able to reliably inhibit SOCE

Structure (SMILES): COc1ccc(OC)c(-c2ccc(-c3cn(-c4cccnc4)nn3)cc2)c1 [Compound 20, 3-(4-(2′,5′-Dimethoxy-[1,1′-biphenyl]-4-yl)-1H-1,2,3-triazol-1-yl)pyridine]
- effect on SOCE, in words (SOCE [2]; HEK cells): not able to reliably inhibit SOCE

Structure (SMILES): COC(=O)c1cc(-n2cc(-c3ccc(-c4cc(OC)ccc4OC)cc3)nn2)ccn1 [Compound 21, Methyl 4-(4-(2′,5′-Dimethoxy-[1,1′-biphenyl]-4-yl)-1H-1,2,3-triazol-1-yl)picolinate]
- inhibition at 10 µM (SOCE [2]; HEK293, HEK cells, 10 μM): > 70%

Structure (SMILES): COc1ccc(OC)c(-c2ccc(-c3cn(-c4cccc(C(=O)O)c4)nn3)cc2)c1 [Compound 23, 3-(4-(2′,5′-Dimethoxy-[1,1′-biphenyl]-4-yl)-1H-1,2,3-triazol-1-yl)benzoic Acid]
- AUC and peak amplitude of the Ca2+-rise vs control (SOCE [2]; HEK cells, 10 μM): significantly reduced AUC and peak amplitude
- inhibition at 10 µM (SOCE [2]; HEK293, HEK cells, 10 μM): > 70%

Structure (SMILES): COc1cccc(-c2ccc(-n3cc(-c4cccc(C(=O)O)c4)nn3)cc2)c1 [Compound 31, 3-(1-(3′-Methoxy-[1,1′-biphenyl]-4-yl)-1H-1,2,3-triazol-4-yl)benzoic Acid]
- AUC, peak amplitude, and slope of the Ca2+-rise (SOCE [2]; HEK cells): induced a drop in the three parameters

Structure (SMILES): O=C(O)c1cccc(-c2cn(-c3ccc(-c4cccc5c4OCCO5)cc3)nn2)c1 [Compound 35, 3-(1-(4-(2,3-Dihydrobenzo[b][1,4]dioxin-5-yl)phenyl)-1H-1,2,3-triazol-4-yl)benzoic Acid]
- AUC, peak amplitude, and slope of the Ca2+-rise (SOCE [2]; HEK cells): induced a drop in the three parameters

Structure (SMILES): COc1cc(OC)cc(-c2ccc(-n3cc(-c4cccc(C(=O)O)c4)nn3)cc2)c1 [Compound 36, 3-(1-(3′,5′-Dimethoxy-[1,1′-biphenyl]-4-yl)-1H-1,2,3-triazol-4-yl)benzoic Acid]
- AUC, peak amplitude, and slope of the Ca2+-rise (SOCE [2]; HEK cells): induced a drop in the three parameters

Structure (SMILES): O=C(O)c1cccc(-c2cn(-c3ccc(-c4ccc5c(c4)OCCO5)cc3)nn2)c1 [Compound 38, 3-(1-(4-(2,3-Dihydrobenzo[b][1,4]dioxin-6-yl)phenyl)-1H-1,2,3-triazol-4-yl)benzoic Acid]
- AUC, peak amplitude, and slope of the Ca2+-rise (SOCE [2]; HEK cells): induced a drop in the three parameters

Structure (SMILES): COc1ccc(F)c(-c2ccc(-n3cc(-c4cccc(C(=O)O)c4)nn3)cc2)c1 [Compound 40, 3-(1-(2′-Fluoro-5′-methoxy-[1,1′-biphenyl]-4-yl)-1H-1,2,3-triazol-4-yl)benzoic Acid]
- AUC, peak amplitude, and slope of the Ca2+-rise (SOCE [2]; HEK cells): induced a drop in the three parameters

Structure (SMILES): COc1cccc(OC)c1-c1ccc(-c2cn(-c3cccc(C(=O)O)c3)nn2)cc1 [Compound 47, 3-(4-(2′,6′-Dimethoxy-[1,1′-biphenyl]-4-yl)-1H-1,2,3-triazol-1-yl)benzoic Acid]
- effect on SOCE, in words (SOCE [2]; HEK cells): positive modulator of SOCE
- AUC of calcium entry and peak amplitude vs control (SOCE [2]; HEK cells, 3 μM): significantly increased the AUC of calcium entry and the peak amplitude
- slope of the Ca2+-rise vs control (SOCE [2]; HEK cells, 3 μM): absence of effect on slope
- inhibition at 3 µM (SOCE [2]; HEK293, HEK cells, 3 μM, negative value = increased SOCE, read-out: % SOCE inhibition (3 μM)): -22.8 ± 0.9%

Structure (SMILES): COc1cccc(-c2ccc(-c3cn(-c4cccc(C(=O)O)c4)nn3)cc2)c1OC [Compound 50, 3-(4-(2′,3′-Dimethoxy-[1,1′-biphenyl]-4-yl)-1H-1,2,3-triazol-1-yl)benzoic Acid]
- AUC, peak amplitude, and slope of the Ca2+-rise (SOCE [2]; HEK cells): induced a drop in the three parameters

Structure (SMILES): COc1ccc(F)c(-c2ccc(-c3cn(-c4cccc(C(=O)O)c4)nn3)cc2)c1 [Compound 56, 3-(4-(2′-Fluoro-5′-methoxy-[1,1′-biphenyl]-4-yl)-1H-1,2,3-triazol-1-yl)benzoic Acid]
- AUC, peak amplitude, and slope of the Ca2+-rise (SOCE [2]; HEK cells): induced a drop in the three parameters

Structure (SMILES): O=C(O)c1cccc(C(=O)Nc2ccc(-c3ccc4c(c3)OCCO4)cc2)c1 [Compound 64, 3-((4-(2,3-Dihydrobenzo[b][1,4]dioxin-6-yl)phenyl)carbamoyl)benzoic Acid]
- effect on SOCE, in words (SOCE [2]; HEK cells): significantly reduced activity compared to the parent compound
- cell viability / cytotoxicity at 50 μM, 72 h (HEK cells [1]): significant cytotoxicity
- reversal of cytotoxicity by uridine (HEK cells [1]): fully reverted by uridine

Structure (SMILES): O=C(O)c1cccc(NC(=O)c2ccc(-c3ccc4c(c3)OCCO4)cc2)c1 [Compound 69, 3-(4-(2,3-Dihydrobenzo[b][1,4]dioxin-6-yl)benzamido)benzoic Acid]
- effect on SOCE, in words (SOCE [2]; HEK cells): significantly reduced activity compared to the parent compound

Structure (SMILES): O=C(Nc1ccn(Cc2ccc(O)cc2C(F)(F)F)n1)c1c(F)cccc1F [GSK-7975A]
- protection in murine models of chemically induced AP (chemically induced AP): protective

Structure (SMILES): COc1ccc(OC)c(-c2ccc(NC(=O)c3ccncc3F)cc2)c1 [Synta66, reference compound]
- AUC and peak amplitude of the Ca2+-rise vs control (SOCE [2]; HEK cells, 10 μM): significantly reduced AUC and peak amplitude
- slope of the Ca2+-rise vs control (SOCE [2]; HEK cells, 10 μM): significant effect on the slope
- inhibition at 10 µM (SOCE [2]; HEK293, HEK cells, 10 μM): 90.8 ± 1.7%
- inhibition at 3 µM (SOCE [2]; [5]): 90.8 ± 1.7%
- IC50 (ICRAC): 1.4 to 3 µM
- cell viability / cytotoxicity at 50 μM, 72 h (HEK cells [1]): significant cytotoxicity

Structure (SMILES): Cc1c(-c2ccc(-c3ccccc3F)cc2)nc2ccc(F)cc2c1C(=O)O [brequinar]
- cell viability / cytotoxicity at 50 μM, 72 h (HEK cells [3]): cytotoxic
- reversal of cytotoxicity by uridine (HEK cells [3]): reverted by uridine addition

Structure (SMILES): C/C(O)=C(\C#N)C(=O)Nc1ccc(C(F)(F)F)cc1 [teriflunomide]
- IC50 (SOCE [4]): 4.3 ± 1 µM

Reference: publication PMC7735735, “Store-Operated Calcium Entry as a Therapeutic Target in Acute Pancreatitis: Discovery and Development of Drug-Like SOCE Inhibitors” (Journal of Medicinal Chemistry, 2020)
